ChEMBL document CHEMBL3272323, “1-Halobenzyl-1H-indazole-3-carboxylic acids. A new class of antispermatogenic agents” (1976)
Active and inactive are the calls of the source. The calls are words filed in the database; no cut-off is given here.

System: Rattus norvegicus
Test: Antispermatogenic activity in Long-Evans rat assessed as reduction of testes weight at a dose equimolecular to 400 mg/kg of 1-(4-chlorobenzyl)-1H-indazole-3-carboxylic acid administered orally as single dose measured after 5 days
Type: functional, organism-based
Parameters: dose 400 mg/kg
Details: Testis

For O=C(O)CCc1nn(Cc2ccc(Cl)cc2)c2ccccc12, which Activity is on record?
The Activity was “inactive”.

How did the Activity turn out when O=C(O)c1cn(Cc2ccc(Cl)cc2)c2ccccc12 was run?
The Activity was “inactive”.

With O=C(O)c1ccccc1NCc1cccc2ccccc12 as the compound, how does the Activity read?
Its Activity is “inactive”.

For O=C(O)c1nn(Cc2c(Cl)cccc2Cl)c2ccccc12, which Activity is on record?
Its Activity is “inactive”.

How did the Activity turn out when OCc1nn(Cc2ccc(Cl)cc2)c2ccccc12 was run?
The Activity was “inactive”.

How did the Activity turn out when Clc1ccc(CCn2nc(-c3nnn[nH]3)c3ccccc32)cc1 was run?
The Activity was “inactive”.

How did the Activity turn out when CCOC(=O)c1nn(Cc2ccc(Cl)cc2)c2ccccc12 was run?
Its Activity is “inactive”.

With Cc1cccc(Cn2nc(C(=O)O)c3ccccc32)c1 as the compound, how does the Activity read?
The Activity was “inactive”.

How did the Activity turn out when Cc1cc(Cl)ccc1Cn1nc(-c2nnn[nH]2)c2ccccc21 was run?
The Activity was “inactive”.

With O=C(O)c1nn(-c2ccc(Cl)cc2)c2ccccc12 as the compound, how does the Activity read?
Its Activity is “inactive”.

COc1ccc2c(c1)c(C(=O)O)nn2Cc1ccc(Cl)cc1 was tested. Which Activity did it give?
The Activity was “inactive”.

Which Activity does the source give for O=C(O)c1nn(Cc2ccc(S(=O)(=O)c3ccccc3)cc2)c2ccccc12 here?
The Activity was “inactive”.

For Cc1ccc2c(c1)c(C(=O)O)nn2Cc1ccc(Cl)cc1, which Activity is on record?
The Activity was “inactive”.

Cc1nn(Cc2ccc(Cl)cc2)c2ccccc12 was tested. Which Activity did it give?
Its Activity is “inactive”.

Which Activity does the source give for O=C(O)c1ccccc1NCc1ccc(Cl)cc1 here?
Its Activity is “inactive”.

Which Activity does the source give for O=C(O)c1nn(S(=O)(=O)c2ccc(Cl)cc2)c2ccccc12 here?
Its Activity is “inactive”.

Which Activity does the source give for O=C(O)c1nn(Cc2ccc(Cl)cc2)c2ccc(O)cc12 here?
The Activity was “inactive”.

For O=C(O)c1nn(Cc2ccc(Cl)cc2)c2ccc(Cl)cc12, which Activity is on record?
The Activity was “inactive”.

How did the Activity turn out when Clc1ccc(Cn2nc(-c3nnn[nH]3)c3ccccc32)c(Cl)c1 was run?
The Activity was “inactive”.

For Cc1c(C(=O)O)c2ccccc2n1Cc1ccc(Cl)cc1, which Activity is on record?
Its Activity is “inactive”.

How did the Activity turn out when Nc1nn(Cc2ccc(Cl)cc2)c2ccccc12 was run?
The Activity was “inactive”.

O=C(NCCCCCCCCNC(=O)C(Cl)Cl)C(Cl)Cl was tested. Which Activity did it give?
The Activity was “inactive”.

O=C(O)c1cc2ccccc2n1Cc1ccc(Cl)cc1 was tested. Which Activity did it give?
Its Activity is “inactive”.

For CC(=O)c1nn(Cc2ccc(Cl)cc2)c2ccccc12, which Activity is on record?
Its Activity is “inactive”.

Which Activity does the source give for Clc1ccc(Cn2ncc3ccccc32)cc1 here?
Its Activity is “inactive”.

How did the Activity turn out when CS(=O)(=O)c1ccc(Cn2nc(C(=O)O)c3ccccc32)cc1 was run?
Its Activity is “inactive”.

How did the Activity turn out when N#Cc1ccc(Cn2nc(C(=O)O)c3ccccc32)cc1 was run?
Its Activity is “inactive”.

With Cc1ccc(Cn2nc(C(=O)O)c3ccccc32)cc1 as the compound, how does the Activity read?
Its Activity is “inactive”.

For O=C(O)c1nn(Cc2ccc(Cl)c3ccccc23)c2ccccc12, which Activity is on record?
Its Activity is “inactive”.

Which Activity does the source give for Sc1nn(Cc2cccc(Cl)c2)c2ccccc12 here?
Its Activity is “inactive”.

O=C(Cn1nc(C(=O)O)c2ccccc21)c1ccc(Cl)cc1 was tested. Which Activity did it give?
The Activity was “inactive”.

O=C(c1ccccc1)c1cccc(Cn2nc(C(=O)O)c3ccccc32)c1 was tested. Which Activity did it give?
The Activity was “inactive”.

Which Activity does the source give for O=C(O)c1nn(Cc2cccc(C(F)(F)F)c2)c2ccccc12 here?
Its Activity is “inactive”.

With Clc1ccc(Cn2nc(-c3nnn[nH]3)c3ccccc32)cc1 as the compound, how does the Activity read?
The Activity was “inactive”.

Which Activity does the source give for N#Cc1nn(Cc2ccc(Cl)cc2)c2ccccc12 here?
Its Activity is “inactive”.

Which Activity does the source give for O=C(O)c1nn(C(=O)c2ccc(Cl)cc2)c2ccccc12 here?
Its Activity is “inactive”.

COC(=O)c1nn(Cc2ccc(Cl)cc2)c2ccccc12 was tested. Which Activity did it give?
Its Activity is “inactive”.

System: Rattus norvegicus
Test: Antispermatogenic activity in po dosed Long-Evans rat assessed as reduction of testes weight administered as single dose measured after 5 days
Type: functional
Details: Testis, 120 h, read-out: MED

With O=C(OC(CO)CO)c1nn(Cc2ccc(Cl)cc2)c2ccccc12 as the compound, how does the minimal effective dose read?
Its minimal effective dose is 503 mg/kg.

How did the minimal effective dose turn out when O=C(O)c1nn(Cc2ccc(Br)cc2Br)c2ccccc12 was run?
The minimal effective dose was 76.5 mg/kg.

Which minimal effective dose does the source give for O=C(OCC(O)CO)c1nn(Cc2ccc(Cl)cc2Cl)c2ccccc12 (stereo not drawn) here?
The minimal effective dose was 69 mg/kg.

Which minimal effective dose does the source give for O=C(O)c1nn(Cc2cccc(Cl)c2)c2ccccc12 here?
Its minimal effective dose is 400 mg/kg.

For Cc1cc(Cl)ccc1Cn1nc(C(=O)O)c2ccccc21 [TOLNIDAMINE], which minimal effective dose is on record?
The minimal effective dose was 52 mg/kg.

Which minimal effective dose does the source give for O=C(O)c1nn(Cc2ccc(I)cc2)c2ccccc12 here?
The minimal effective dose was 528 mg/kg.

Which minimal effective dose does the source give for O=C(O)c1nn(Cc2ccccc2Cl)c2ccccc12 here?
The minimal effective dose was 200 mg/kg.

With O=C(O)c1nn(Cc2ccc(Br)cc2)c2ccccc12 as the compound, how does the minimal effective dose read?
The minimal effective dose was 231 mg/kg.

With O=C(OCCO)c1nn(Cc2ccc(Cl)cc2)c2ccccc12 as the compound, how does the minimal effective dose read?
Its minimal effective dose is 486 mg/kg.

O=C(OCC(O)CO)c1nn(Cc2ccccc2Cl)c2ccccc12 (stereo not drawn) was tested. Which minimal effective dose did it give?
The minimal effective dose was 503 mg/kg.

With O=C(OCC(O)CO)c1nn(Cc2ccc(Cl)cc2)c2ccccc12 (stereo not drawn) as the compound, how does the minimal effective dose read?
The minimal effective dose was 503 mg/kg.

With Cc1ccccc1Cn1nc(C(=O)O)c2ccccc21 as the compound, how does the minimal effective dose read?
The minimal effective dose was 186 mg/kg.

For NC(=O)c1nn(Cc2ccc(Cl)cc2)c2ccccc12, which minimal effective dose is on record?
Its minimal effective dose is 399 mg/kg.

O=C(O)c1nn(Cc2ccc(F)cc2)c2ccccc12 was tested. Which minimal effective dose did it give?
The minimal effective dose was 377 mg/kg.

With O=C(O)Cc1nn(Cc2ccc(Cl)cc2)c2ccccc12 as the compound, how does the minimal effective dose read?
The minimal effective dose was 419 mg/kg.

With O=C(O)c1nn(Cc2ccc(Cl)cc2Cl)c2ccccc12 [LONIDAMINE] as the compound, how does the minimal effective dose read?
The minimal effective dose was 56 mg/kg.

For O=C(O)c1nn(Cc2ccc(Cl)cc2)c2ccccc12, which minimal effective dose is on record?
The minimal effective dose was 400 mg/kg.

With O=C(O)c1nn(Cc2ccc(Cl)c(Cl)c2)c2ccccc12 as the compound, how does the minimal effective dose read?
Its minimal effective dose is 448 mg/kg.

For Cc1ccc(Cn2nc(C(=O)O)c3ccccc32)c(C)c1 [XINIDAMINE], which minimal effective dose is on record?
The minimal effective dose was 101 mg/kg.

How did the minimal effective dose turn out when O=C(OCC(O)CO)c1nn(Cc2cc(Cl)c(Cl)cc2Cl)c2ccccc12 (stereo not drawn) was run?
Its minimal effective dose is 300 mg/kg.

Which minimal effective dose does the source give for O=C(O)c1nn(Cc2cc(Cl)c(Cl)cc2Cl)c2ccccc12 here?
The minimal effective dose was 248 mg/kg.
